Experimental data as given in US6869964B2, “Heterocyclicsulfonamide hepatitis C virus inhibitors” (Bristol-Myers Squibb Company, priority 2002, dated 2005).
Read-outs that look alike come from different tables or passages of the source.

What was measured:
[1] = target: T1, porcine pancreatic elastase (PPE) (Sus scrofa, UniProt P00772); test: Specificity assay, porcine pancreatic elastase; type: biochemical; conditions: 2 hr enzyme-inhibitor pre-incubation
T1 construct: porcine pancreatic elastase (PPE); from tissue; host or cells: porcine pancreas (from the enzyme's name only)
T1 sequence (P00772 27-266): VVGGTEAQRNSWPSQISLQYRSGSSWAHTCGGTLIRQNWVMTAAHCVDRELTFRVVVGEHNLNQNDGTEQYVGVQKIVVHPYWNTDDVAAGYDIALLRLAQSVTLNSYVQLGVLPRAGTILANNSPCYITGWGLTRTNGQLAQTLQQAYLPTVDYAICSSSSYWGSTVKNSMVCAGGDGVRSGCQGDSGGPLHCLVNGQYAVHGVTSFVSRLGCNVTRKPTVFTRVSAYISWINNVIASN
Experimental: (§1) The specificities of compounds of the present invention were determined against a variety of serine proteases: human sputum elastase (HS), porcine pancreatic elastase (PPE) and human pancreatic chymotrypsin and one cysteine protease: human liver cathepsin B. In all cases a 96-well plate format protocol using colorimetric p-nitroaniline (pNA) substrate specific for each enzyme was used as described previously (CT 2633 application) with some modifications to the serine protease assays.
(§2) Each assay included a 2 hr enzyme-inhibitor pre-incubation at RT followed by addition of substrate and hydrolysis to ˜30% conversion as measured on a Spectramax Pro microplate reader. Compound concentrations varied from 100 to 0.4 μM depending on their potency.
The final conditions and protocol for the serine protease assays were: • 50 mM Tris(hydroxymethyl)aminomethane hydrochloride (Tris-HCl) pH8, • 0.5M Sodium Sulfate (Na2SO4), 50 mM NaCl, 0.1 mM EDTA, 3% DMSO, • 0.01% Tween-20 with: 133 μM succ-AAA-pNA and 20 nM HS or 8 nM PPE; 100 μM succ-AAPF-pNA and 250 pM Chymotrypsin.
(§3) The percentage of inhibition was calculated using the formula: [1−((UVinh−UVblank)/(UVctl−UVblank))]×100
(§4) A non-linear curve fit was applied to the inhibition-concentration data, and the 50% effective concentration (IC50) was calculated by the use of Excel Xl-fit software.

[2] = system: HCV replicon in Huh7 cells; test: HCV replicon cell-based assay (FRET); parameters: species or system HCV strain 1B; conditions: Hepatitis C virus
Excerpt: HCV Replicon Cell-based Assay
An HCV replicon whole cell system was established as described by Lohmann V, Korner F, Koch J, Herian U, Theilmann L, Bartenschlager R., Science 285(5424): 110-3 (1999). This system enabled us to evaluate the effects of our HCV Protease compounds on HICV RNA replication. Briefly, using the HCV strain 1B sequence described in the Lohmann paper (Assession number: AJ238799), an HCV cDNA was generated encoding the 5′ internal ribosome entry site (IRES), the neomycin resistance gene, the EMCV (encephalomyocarditis virus)-IRES and the HCV nonstructural proteins, NS3-NS5B, and 3′ non-translated region (NTR). In vitro transcripts of the cDNA were transfected into the human hepatoma cell line, Huh7. […] Resulting cell lines were characterized for positive and negative strand RNA production and protein production over time.
Huh7 cells, constitutively expressing the HCV replicon, were grown in Dulbecco's Modified Eagle Media (DMEM) containing 10% Fetal calf serum (FCS) and 1 mg/ml G418 (Gibco-BRL). Cells were seeded the night before (1.5×10^4 cells/well) in 96-well tissue-culture sterile plates. Compound and no compound controls were prepared in DMEM containing 4% FCS, 1:100 Penicillin/Streptomysin, 1:100 L-glutamine and 5% DMSO in the dilution plate (0.5% DMSO final concentration in the assay). Compound/DMSO mixes were added to the cells and incubated for 4 days at 37° C. After 4 days, plates were rinsed thoroughly with Phosphate-Buffered Saline (PBS) (3 times 150 μl). The cells were lysed with 25 μl of a lysis assay reagent containing the FRET peptide (RET S1, as described for the in vitro enzyme assay). The lysis assay reagent was made from 5× cell Luciferase cell culture lysis reagent(Promega #E153A) diluted to 1× with distilled water, NaCl added to 150 mM final, the FRET peptide diluted to 10 μM final from a 2 mM stock in 100% DMSO. The plate was then placed into the Cytofluor 4000 instrument which had been set to 340 nm excitation/490 emission, automatic mode for 21 cycles and the plate read in a kinetic mode. EC50 determinations were carried out as described for the IC50 determinations.

human liver cathepsin B = target: T2, human liver cathepsin B (Homo sapiens, UniProt P07858); test: Specificity assay, human liver cathepsin B; type: biochemical; conditions: 2 hr enzyme-inhibitor pre-incubation; solubility issues at 100 μM
T2 construct: one cysteine protease: human liver cathepsin B; from tissue; host or cells: human liver (from the enzyme's name only)
Experimental: as §1, §2, §3, §4

## C=CC1C[C@]1(NC(=O)[C@@H]1C[C@@H](Oc2cc(-c3ccccc3)nc3cc(OC)ccc23)CN1C(=O)[C@@H](NC(=O)OC(C)(C)C)C(C)(C)C)C(=O)NS(=O)(=O)c1cccs1 (stereo in doubt) [Compound 1, (1-{4-(7-Methoxy-2-phenylquinolin-4-yloxy)-2-[1-(thiophene-2-sulfonylaminocarbonyl)-2-vinyl-cyclopropylcarbamoyl]-pyrrolidine-1-carbonyl}-2,2-dimethylpropyl)carbamic acid tert-butyl ester]
[1]
  IC50: > 50000 nM
[2]; Huh-7, 96 h, Huh7 cells, 4 days, read-out: EC50 value in the replicon assay
  EC50: 55 nM
[2]; Huh-7, replicon, activity range, read-out: EC50 a, b, c (Activity Table)
  EC50: < 100 nM
Human liver cathepsin B
  IC50: > 50000 nM
